From patent publication EP2848929A1, “Graphene FET-based biosensor” (AIT Austrian Institute of Technology GmbH, priority 2013, dated 2015)
Where two headings read alike, the source gives them in different places. Each block holds one compound with its values, some of them ahead of it.

Key:
OBP14 [1] = molecular target: T1, OBP14 (Apis mellifera, UniProt A0A8U0WQC3); assay: biochemical; format: binding, honeybees; conditions: for kon: read-out: [kon] / M^-1s^-1; for binding to OBP14 (in words): qualitative ranking from biosensor results
OBP14 [2] = molecular target: T1, OBP14; conditions: fluorescent displacement assays, literature; cited from earlier work
[3] = 10^2 [KA] /M^-1, Table 2, affinity constant KA = kon/koff from titration, Langmuir model fit
[4] = 10^-6 [KD] /M, Table 2, KD = 1/KA from titration, Langmuir model fit
[5] = Table 2, association rate constant from titration fit
[6] = Table 2, dissociation rate constant from final buffer wash fit, read-out: [ koff] / s^-1
[7] = 10^- 6[KD] /M, Table 1, KD = 1/KA from titration, Langmuir model, 1mM PBS, pH = 8.0
[8] = KD, from Langmuir isotherm plot, half saturation concentration (50% surface coverage)
[9] = KD, from the kinetic measurement (titration fitted with Langmuir model)
[10] = Table 1, affinity constant KA = kon/koff from titration, Langmuir model, 1mM PBS, pH = 8.0
[11] = Table 2, affinity constant KA = kon/koff from titration, Langmuir model fit
[12] = dissociation constant of KD, control experiment, eugenol and methyl eugenol on the same sensor device

T1 sequence (A0A8U0WQC3 entry or part of it): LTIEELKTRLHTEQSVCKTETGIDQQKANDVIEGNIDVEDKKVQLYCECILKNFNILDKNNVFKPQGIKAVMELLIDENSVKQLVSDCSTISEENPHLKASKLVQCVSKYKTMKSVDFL

SMILES: COc1cc(C=O)ccc1O [Vanillin, 4-Hydroxy-3-methoxybenzaldehyd]
Kd (OBP14 [1]; [3]): 20.7 µM
Kd (OBP14 [1]; [4]): 23.8 ± 6 µM
kon (OBP14 [1]; [5]): 191 ± 111 M⁻¹ s⁻¹
koff (OBP14 [1]; [6]): 0.0038 s⁻¹

SMILES: C=CCc1ccc(O)c(OC)c1 [Eugenol, 4-Allyl-2-methoxyphenol]
koff (OBP14 [1]): 0.003 s⁻¹
real-time response (ΔIDS) of the biosensor (OBP14 [1]; 5 µM eugenol solution compared with a 10 fold higher concentrated methyl eugenol solution, same sensor device): significantly higher
Kd (OBP14 [1]; [7]): 9.2 ± 0.7 µM
Kd (OBP14 [1]; [4]): 9.2 ± 0.7 µM
Kd (OBP14 [1]; [8]): 1.9 µM
Kd (OBP14 [1]; [9]): 9.2 µM
10^2 [KA] /M^-1 (OBP14 [1]; [10]): 1087 ± 91 10^2 M^-1
10^2 [KA] /M^-1 (OBP14 [1]; [11]): 1087 ± 91 10^2 M^-1
Kd (OBP14 [1]; [12]): 19 µM
binding to OBP14 (in words) (OBP14 [1]): high affinity
koff (OBP14 [1]; read-out: [ koff] / s^-1): 0.003 s⁻¹
koff (OBP14 [1]; read-out: [koff] /s ^-1): 0.003 s⁻¹
kon (OBP14 [1]): 326 ± 27 M⁻¹ s⁻¹

SMILES: COc1cc(CCC(C)=O)ccc1O [Vanillyl acetone, 4-(4-hydroxy-3-methoxyphenyl)butan-2-one]
10^2 [KA] /M^-1 (OBP14 [1]; [11]): 409.7 ± 0.3 10^2 M^-1
Kd (OBP14 [1]; read-out: 10^-6 [KD] /M): 24.4 ± 0.02 µM
koff (OBP14 [1]; read-out: [ koff] / s^-1): 0.007 s⁻¹
kon (OBP14 [1]): 286.8 ± 0.2 M⁻¹ s⁻¹

Kd (OBP14 [1]; Table 2, KD = 1/KA from titration, Langmuir model fit, read-out: 10^-6 [KD] /M): 22 ± 4.5 µM
10^2 [KA] /M^-1 (OBP14 [1]; [11]): 479 ± 136 10^2 M^-1
kon (OBP14 [1]; [5]): 239 ± 68 M⁻¹ s⁻¹
koff (OBP14 [1]; [6]): 0.005 s⁻¹
Kd (OBP14 [1]; from Langmuir isotherm of change in drain current ΔIDS vs odorant concentration [Od] (Fig. 1D), read-out: KD): 10 µM
Kd (OBP14 [1]; from Langmuir isotherm plot, half saturation concentration (50% surface coverage), read-out: KD): 24 µM
Kd (OBP14 [1]; from linear relationship between reaction rate constant k and odorant concentration (Fig. 1B), read-out: KD): 30 µM
Kd (OBP14 [1]; from the kinetic measurement (titration fitted with Langmuir model), read-out: KD): 22 µM
SMILES: COC(=O)c1ccc(O)c(OC)c1 [Methyl vanillate, Methyl 4-hydroxy-3-methoxybenzoate]

SMILES: COc1cc(/C=C/C=O)ccc1O [Coniferyl aldehyde, (E)-3-(4-hydroxy-3-methoxyphenyl) prop-2-enal]
affinity to OBP14 (in words) (OBP14 [2]): did not show good affinity
Kd (OBP14 [1]; [3]): 8.06 µM
Kd (OBP14 [1]; [4]): 9.1 ± 2.3 µM
koff (OBP14 [1]; read-out: [ koff] / s^-1): 0.003 s⁻¹
kon (OBP14 [1]): 370 ± 190 M⁻¹ s⁻¹

SMILES: COc1cc(CC(=O)O)ccc1O [Homovanillic acid, 2-(4-Hydroxy-3-methoxy-phenyl)acetic acid]
affinity to OBP14 (in words) (OBP14 [2]): did not show good affinity
Kd (OBP14 [1]; [7]): 6.5 ± 0.7 µM
10^2 [KA] /M^-1 (OBP14 [1]; [10]): 1540 ± 140 10^2 M^-1
koff (OBP14 [1]; read-out: [koff] /s ^-1): 0.0078 s⁻¹

Kd (OBP14 [1]; [7]): 1120 ± 5 µM
10^2 [KA] /M^-1 (OBP14 [1]; [10]): 8.96 ± 0.04 10^2 M^-1
binding to OBP14 (in words) (OBP14 [1]): moderate or weak binders
koff (OBP14 [1]; read-out: [koff] /s ^-1): 0.0077 s⁻¹
SMILES: CC(C)=CCC/C(C)=C/CO [Geraniol, (2E)-3,7-Dimethylocta-2,6-dien-1-ol]

Kd (OBP14 [1]; Table 1, KD = 1/KA from titration, Langmuir model, 1mM PBS, pH = 8.0, read-out: 10^- 6[KD] /M): 814 ± 58 µM
10^2 [KA] /M^-1 (OBP14 [1]; [10]): 12.33 ± 0.86 10^2 M^-1
[kon] /M^1s^-1 (OBP14 [1]; Table 1, association rate constant from titration fit): 8.3 ± 0.6 M^1s^-1
koff (OBP14 [1]; Table 1, dissociation rate constant from final buffer wash fit, read-out: [koff] /s ^-1): 0.0068 s⁻¹
binding to OBP14 (in words) (OBP14 [1]): behave poorly
SMILES: CC(=O)OCCC(C)C [Isoamyl acetate, 3-methylbutyl acetate]

SMILES: C=CCc1ccc(OC)c(OC)c1 [Methyl eugenol, 1,2-Dimethoxy-4-prop-2-enylbenzene]
Kd (OBP14 [1]; [4]): 520 ± 0.1 µM
10^2 [KA] /M^-1 (OBP14 [1]; [11]): 19.23 ± 0.03 10^2 M^-1
kon (OBP14 [1]; [5]): 8.92 ± 0.01 M⁻¹ s⁻¹
koff (OBP14 [1]; [6]): 0.0046 s⁻¹
Kd (OBP14 [1]; [12]): 590 µM
concentration at which equilibrium was achieved, relative to the other odorants (OBP14 [1]; titration curves Fig. 3, compared with three ligands with phenolic based structure): about 10 fold

Kd (OBP14 [1]; [7]): 1410 ± 21 µM
Kd (OBP14 [1]; [8]): 1500 µM
Kd (OBP14 [1]; [9]): 1400 µM
10^2 [KA] /M^-1 (OBP14 [1]; [10]): 7.07 ± 0.11 10^2 M^-1
binding to OBP14 (in words) (OBP14 [1]): behave poorly
koff (OBP14 [1]; read-out: [koff] /s ^-1): 0.0074 s⁻¹
SMILES: CC(=O)CCC=C(C)C [Sulcatone, 6-Methylhept-5-en-2-one]

SMILES: CC(C)=CCCC(C)=CC=O (mixture of isomers) [Citral, (2E)-3,7-dimethylocta-2,6-dienal]
Kd (OBP14 [1]; [7]): 589.2 ± 0.6 µM
Kd (OBP14 [1]; [8]): 550 µM
Kd (OBP14 [1]; [9]): 590 µM
10^2 [KA] /M^-1 (OBP14 [1]; [10]): 16.97 ± 0.02 10^2 M^-1
binding to OBP14 (in words) (OBP14 [1]): moderate or weak binders
koff (OBP14 [1]; read-out: [koff] /s ^-1): 0.0035 s⁻¹
